The values below are quoted from earlier work in PubChem BioAssay AID1259409 (Chemical Carcinogenesis Research Information System (CCRIS), 2018).

In the data set the test system is rodent chemically induced tumor inhibition, incidence and multiplicity. The experiment in a line: CCRIS tumor inhibitor studies.

`O=C(OC[C@@H]1O[C@H](OC(=O)c2cc(O)c(O)c(OC(=O)c3cc(O)c(O)c(O)c3)c2)[C@@H](OC(=O)c2cc(O)c(O)c(OC(=O)c3cc(O)c(O)c(O)c3)c2)[C@H](OC(=O)c2cc(O)c(O)c(OC(=O)c3cc(O)c(O)c(O)c3)c2)[C@H]1OC(=O)c1cc(O)c(O)c(OC(=O)c2cc(O)c(O)c(O)c2)c1)c1cc(O)c(O)c(OC(=O)c2cc(O)c(O)c(O)c2)c1`: the “tumour outcome (control, treated, inhibition, significance)” value is reported as 90%, 65%, 28%, not calculated (Carcinogen: 7,12-DIMETHYLBENZ[A]ANTHRACENE, 57-97-6, Dose [Inhibitor]: 0, 17 MG 2/WK FOR 20 WK APPLIED 20 MIN PRIOR TO EACH PROMOTER DOSE (STUDY DURATION: 22 WK), Route [Inhibitor]: DERMAL, Species: (36,?)/(36,?), Strain/Sex: CF-1/FEMALE, Target Tissue: Type of Lesion: SKIN: PAPILLOMA, Dose [Carcinogen]: 25.6 UG IN 0.2 ML ACETONE ONCE, Promoter: 12-O-TETRADECANOYLPHORBOL-13-ACETATE, 16561-29-8); 66%, 0%, 100%, not calculated (Carcinogen: 7,12-DIMETHYLBENZ[A]ANTHRACENE, 57-97-6, Dose [Inhibitor]: 0, 20 UMOL IN 0.4 ML ACETONE 20 MIN PRIOR TO EACH PROMOTER DOSE (STUDY DURATION: 47 WK), Route [Inhibitor]: DERMAL, Species: MOUSE, Strain/Sex: CF-1/FEMALE, Target Tissue: Type of Lesion: SKIN: CARCINOMA, Dose [Carcinogen]: 100 NMOL IN 0.2 ML ACETONE ONCE); 94%, 23%, 76%, not calculated (Carcinogen: 7,12-DIMETHYLBENZ[A]ANTHRACENE, 57-97-6, Dose [Inhibitor]: 0, 20 UMOL IN 0.4 ML ACETONE 20 MIN PRIOR TO EACH PROMOTER DOSE (STUDY DURATION: 47 WK), Route [Inhibitor]: DERMAL, Species: MOUSE, Strain/Sex: CF-1/FEMALE, Target Tissue: Type of Lesion: SKIN: PAPILLOMA, Dose [Carcinogen]: 100 NMOL IN 0.2 ML ACETONE ONCE); 90%, 96%, -7%, not calculated (Carcinogen: 7,12-DIMETHYLBENZ[A]ANTHRACENE, 57-97-6, Dose [Inhibitor]: 0, 34 MG 2/WK FOR 2 WK APPLIED 20 MIN PRIOR TO EACH TPA DOSE (STUDY DURATION: 22 WK), Route [Inhibitor]: DERMAL, Species: MOUSE, Strain/Sex: SENCAR/FEMALE, Target Tissue: Type of Lesion: SKIN: PAPILLOMA, Dose [Carcinogen]: 6.4 UG IN 0.2 ML ACETONE ONCE, Promoter: 12-O-TETRADECANOYLPHORBOL-13-ACETATE, 16561-29-8, MEZEREIN, 34807-41-5, Promoter: 12-O-TETRADECANOYLPHORBOL-13-ACETATE, 16561-29-8, MEZEREIN, 34807-41-5); 90%, 25%, 72%, not calculated (Carcinogen: 7,12-DIMETHYLBENZ[A]ANTHRACENE, 57-97-6, Dose [Inhibitor]: 0, 34 MG 2/WK FOR 18 WK APPLIED 20 MIN PRIOR TO EACH MEZEREIN DOSE (STUDY DURATION: 22 WK), Route [Inhibitor]: DERMAL, Species: MOUSE, Strain/Sex: SENCAR/FEMALE, Target Tissue: Type of Lesion: SKIN: PAPILLOMA, Dose [Carcinogen]: 6.4 UG IN 0.2 ML ACETONE ONCE, Promoter: 12-O-TETRADECANOYLPHORBOL-13-ACETATE, 16561-29-8, MEZEREIN, 34807-41-5, Promoter: 12-O-TETRADECANOYLPHORBOL-13-ACETATE, 16561-29-8, MEZEREIN, 34807-41-5); 75%, 60%, 20%, not significant (Carcinogen: (+/-)-7BETA,8ALPHA-DIHYDROXY-9ALPHA,10ALPHA-EPOXY-7,8,9,10- TETRAHYDROBENZO[A]PYRENE, 58917-67-2, Dose [Inhibitor]: 3000 NMOL IN 0.2 ML ACETONE 1/D FOR 7 D (STUDY DURATION: 18 WK), Route [Inhibitor]: DERMAL, Species: MOUSE, Strain/Sex: SENCAR/FEMALE, Target Tissue: Type of Lesion: SKIN: TUMOR, Dose [Carcinogen]: 200 NMOL IN 0.2 ML ACETONE ONCE 30 MIN POST LAST INHIBITOR DOSE, Promoter: 12-O-TETRADECANOYLPHORBOL-13-ACETATE, 16561-29-8). Moreover, the “tumour outcome (control, treated, inhibition, significance)” value is on record as 17/50 (34%), 15/50 (30%), 12%, not significant (Carcinogen: BENZO[A]PYRENE, 50-32-8, Dose [Inhibitor]: 1% AQUEOUS SOLUTION 3/WK FOR A TOTAL OF 80 APPLICATIONS FOLLOWED BY AT LEAST 365 D OBSERVATION PERIOD (STUDY DURATION: 5, Route [Inhibitor]: DERMAL, Species: MOUSE, Strain/Sex: CD-1/MALE, FEMALE, Target Tissue: Type of Lesion: SKIN: CARCINOMA, SQUAMOUS CELL PAPILLOMA, SEBACEOUS ADENOMA, BASAL CELL TUMOR, KERATOACANTHOMA, Dose [Carcinogen]: 0.53-0.6 MG ONCE PRIOR TO START OF AGENT TREATMENT, Promoter: NONE USED); 27/30 (90%), 19/30 (63%), 30%, not calculated (Carcinogen: BENZO[A]PYRENE, 50-32-8, Dose [Inhibitor]: 1% IN DIET BEGINNING 45 D PRIOR TO CARCINOGEN (STUDY DURATION: 36 WK), Route [Inhibitor]: ORAL, Species: MOUSE, Strain/Sex: SENCAR/FEMALE, Target Tissue: Type of Lesion: FORESTOMACH: PAPILLOMA, Dose [Carcinogen]: 100 MG/KG IN 0.2 ML CORN OIL 2/WK FOR 4 WK, Promoter: NONE USED); 27/30 (90%), 18/30 (60%), 33%, not calculated (Carcinogen: BENZO[A]PYRENE, 50-32-8, Dose [Inhibitor]: 1% IN DIET BEGINNING 45 D PRIOR TO CARCINOGEN (STUDY DURATION: 36 WK), Route [Inhibitor]: ORAL, Species: MOUSE, Strain/Sex: SENCAR/FEMALE, Target Tissue: Type of Lesion: LUNG: ADENOMA, Dose [Carcinogen]: 100 MG/KG IN 0.2 ML CORN OIL ONCE, Promoter: NONE USED); 30/30 (100%), 30/30 (100%), 0%, not calculated (Carcinogen: DIMETHYLBENZ[A]ANTHRACENE, 57-97-6, Dose [Inhibitor]: 1% IN DIET BEGINNING 45 D PRIOR TO CARCINOGEN DOSE AND CONTINUED FOR 10 D POST CARCINOGEN (STUDY DURATION: 16 WK), Route [Inhibitor]: ORAL, Species: MOUSE, Strain/Sex: SENCAR/FEMALE, Target Tissue: Type of Lesion: SKIN: PAPILLOMA, Dose [Carcinogen]: 10 UG IN 0.2 ML ACETONE ONCE, Promoter: TPA, 16561-29-8); 75%, 42%, 44%, p=0.028 (Carcinogen: UV IRRADIATION, Dose [Inhibitor]: 0, 200 UG IN 200 µL ACETONE 3/WK FOR DURATION OF STUDY BEGINNING 2 WK PRIOR TO UV IRRADIATION (STUDY DURATION: 29 WK), Route [Inhibitor]: DERMAL, Species: MOUSE, Strain/Sex: BALB/CANNTACFBR/FEMALE, Target Tissue: Type of Lesion: SKIN: TUMOR, Dose [Carcinogen]: 6.94 J/M2/SEC 30 MIN/D 5 D/WK FOR 17.5 WK, Promoter: NONE USED).
